Measurements as given in patent US20190382850A1, “METHOD FOR IDENTIFYING MITOCHONDRIAL DNA IN EXTRACELLULAR VESICLES AND TREATMENT OF MTDNA-RELATED DISORDERS AND CANCER” (Memorial Sloan-Kettering Cancer Center, priority 2017, published 2019).

Columns and labels:
Jak2 = assay: EV mtDNA copy number from CAFs in hypoxia reoxygenation ± Jak2 inhibitor; assay type: cell-based; conditions: 500 nM every 3 days, FIG. 14
Description: FIG. 14 reports that hypoxia reoxygenation culture condition increases EV mtDNA copy number in a Jak2-Stat(s) dependent manner. 10-cm plates with 10^6 cells (CAFs) were cultured in 1% O2 (hypoxia) for 4 days and 3 days in normal culture conditions (20% O2, hyperoxia) in presence/absence of Jak2 inhibitor (500 nM every 3 days). Conditioned media for EV isolation and DNA level from EVs was analyzed. As control, EVs from 20% O2, hyperoxia were also collected and analyzed. MtDNA as copy number is shown as bar graphs, mean±error bars of ND1 level obtained from EV-DNA (10 ng total DNA).

MCF7 model metastases = assay: Metastatic assay: mastectomy followed by adjuvant HT in MCF7 tumor-bearing mice; assay type: in vivo; conditions: adjuvant tamoxifen after mastectomy, followed ~9 months
Description: (§1) FIG. 8 reports that OXPHOS inhibition abrogates HTR disease. (Panel a), Proliferation potential as determined by in vitro cell growth (CalceinAM) in luminal (ER+) and triple negative cancer cell lines cultured in media with increasing concentration of glucose. (Panel b), Oxygen consumption rates (OCR)±oligomycin (200 nM)/rotenone (100 nM) in MCF7 and MDA-MB-231 cells as determined by seahorse technology. (Panel c), Desmin immunohistochemical images of CAFs in HTS/HTR-derived tissues (scale bar 25 μm). (Panel d), Schematic analysis of the generation of metastatic HTR disease in mice. […] Metastatic burden was analyzed by BLI and at necropsy by histological examination (H&E). (Panel e), Proliferation potential in presence of oligomycin (100 nM) and ±HT as determined by in vitro BLI in metastatic cells from HTS and HTR cells FACS purified from xenografts (FIG. 2a). Error bars, mean±s.d. of BLI from n=3 samples. (Panel f), mtDNA/nDNA level in circulating EVs from HTR xenografts as determined by copy number (GAPDH, ND1: qPCR Fold change). Data are reported as error bars, mean±s.d. of n=3 independent experiments (a, e-g). *P<0.05 (Student's t-test) and GLM anova after multiple comparisons (a).
All cancer cell lines were engineered to express a GFP positive luciferase expression vector for in vitro and in vivo imaging studies. […] EV-number was determined by Nanosight. […]

mu-mtDNAhi HTR cells = assay: Proliferation in presence of OXPHOS inhibitors ± HT; assay type: cell-based, human; conditions: with and without fulvestrant; atovaquone 1 μM, rotenone 100 nM, oligomycin 200 nM; FIG. 2f, 8e
Text: (Panel a) Representative tumor growth kinetics (BLI) of GFP+/Luciferase+MCF7 xenografts (n=10) treated with weekly fulvestrant once mammary fat pad tumors were established (after 3 months) which led to a period (4 months) of disease stability on HT (HTS) followed by exponential growth on HT (HTR). Representative H&E images of tumors and primary cultures from unsorted as well as FACS purified cancer cells (GFP+/Epcam+) and murine CAFs (GFP−/Epcam). Scale bar 20 μm. (Panel b) OXPHOS potential in tumor-derived cancer cells (panel a) was measured±HT (fulvestrant, 10 μM) by Seahorse. […] (Panel d) Percentage of metastatic lesions isolated by FACS from tumor-bearing mice (n=8/group) expressing murine mtDNA as determined by ND1 qPCR (2 ng of total DNA). Oxygen consumption rates (OCR) in murine-mtDNApos and ctrl HTR cells determined by Seahorse. (Panel e) Murine mitochondrial RNA expression (12 genes: ND1, ND2, COX2, ATP8, ATP6, COX3, ND3, ND4L, ND4, ND5, ND6, CytB) as fold change (logioscale) determined by qRT-PCR in HTR and HTS cells (panel a). […]
FIG. 8 reports that OXPHOS inhibition abrogates HTR disease. (Panel a), Proliferation potential as determined by in vitro cell growth (CalceinAM) in luminal (ER+) and triple negative cancer cell lines cultured in media with increasing concentration of glucose. […]

HTS cells = assay: as above; assay type: cell-based, human; conditions: with and without fulvestrant
Description: as §1, with “Error bars, mean±s.d. of BLI from n=3 samples.” left out, “Data are reported as error bars, mean±s.d. of n=3 independent experiments (a, e-g). *P<0.05 (Student's t-test) and GLM anova after multiple comparisons (a).” left out
For immunoblotting assays, cells were lysed in buffer (50 mmol/L Tris at pH 7.5, 150 mmol/L NaCl, 5 μg/mL aprotinin, pepstatin, 1% NP-40, lmmol/L EDTA, 0.25% deoxycholate, and protease inhibitor cocktail tablet, Sigma). […] The enrichment of CAFs in xenografts was determined by desmin immunohistochemistry (IHC) in tumor-derived sections. […]

SMILES	generation of mtDNA high EVs (Jak2)	HT treated mice with no evidence of disease (MCF7 model metastases) [%]	HT treated mice with wide-spread (>20) HTR metastases involving multiple organs (MCF7 model metastases) [%]	sensitivity of HTR cells to HT (proliferation) (mu-mtDNAhi HTR cells)	combined effect with HT on cell proliferation and/or cell death of HTS cells (HTS cells)
Cc1cc(Nc2nc(N[C@@H](C)c3ncc(F)cn3)ncc2Cl)[nH]n1 [AZD 1490]	hampering the generation of mtDNA high EVs				
CC/C(=C(\c1ccccc1)c1ccc(OCCN(C)C)cc1)c1ccccc1 [tamoxifen]		90	10		
C=C(C)[C@H]1Cc2c(ccc3c2O[C@@H]2COc4cc(OC)c(OC)cc4[C@@H]2C3=O)O1 [rotenone]				re-sensitized HTR cells to HT	no synergistic effect
CC[C@H]1/C=C/C=C/C[C@@H](C)[C@H](O)[C@@](C)(O)C(=O)[C@@H](C)[C@H](O)[C@@H](C)C(=O)[C@@H](C)[C@H](O)[C@@H](C)/C=C/C(=O)O[C@@H]2[C@H](C)[C@H](CC1)O[C@]1(CC[C@H](C)[C@H](C[C@@H](C)O)O1)[C@H]2C [oligomycin]				re-sensitized HTR cells to HT	no synergistic effect
